Measurements reported in paper PMC10447463, “Data-mining unveils structure–property–activity correlation of viral infectivity enhancing self-assembling peptides” (Nature Communications, 2023).
Like-named read-outs stand apart in the source and are kept apart here.

Experiments:
[1] = Conversion rate (CR) assay with fluorescamine; assay type: physicochemical; parameters: key to CR: % = 100−100×filtrate/original fluorescence intensity
Procedure, shortened: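 Spectra: 64 scans, 2 cm^-1, lyophilized PNF (1 mg/mL source). CR = 100 − 100 × filtrate/original fluorescamine signal; triplicate, ± SD.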

TZM-bl cells = assay type: cell-based; conditions: CellTiter-Glo, mean of n = 3 replicates; for viability 0.26 µM: peptide 0.26 µM; for viability 1.3 µM: peptide 1.3 µM; for viability 6.5 µM: peptide 6.5 µM
Method: The cell viability after addition of peptides to TZM–bl cells was studied via the CellTiter–Glo assay. To this end, 10,000 cells were seeded and on the next day serial diluted peptides were added. After 3 days the supernatant was removed and 100 µL CellTiter–Glo Reagent 1:1 diluted in PBS was added. After 10 min 50 µL was transferred to white microplate and luminescence was recorded by Orion microplate luminometer.
2. Cell Viability of Representatively Selected Peptides
Figure S 2 Cell Viability normalized to 100% metabolic activity as determined by CellTiterGlo Assay of 57 representatively selected peptides from the library. The selection represents infectivity enhancing and not […]
concentration. Error bars indicate standard deviation from triplicate measurements. Source data for Figure S2 […]
Figure S3 Cell Viability normalized to 100% metabolic activity determined by CellTiterGlo Assay of 20 peptides reported in literature. 33,34,43–48,35–42 Cell viability (> 80%) is maintained for all peptides at 1.3 µM concentration regardless of the preparation method, which is A PNF formation method by dilution of 10 mg/mL peptide stock in DMSO in PBS to 1 mg/mL or B preparation according to literature reported protocol (SI Section 8). Error bars indicate standard deviation from triplicate measurements. Source data for Figure S3 is provided.

Row | Substance | Conversion Rate / % [1] [%] | Conversion Rate / % ([1]; fluorescamine assay) [%] | viability 0.26 µM (TZM-bl cells) | viability 1.3 µM (TZM-bl cells) | viability 6.5 µM (TZM-bl cells) | CR / % ([1]; Fig. S7 panel B, conversion rate, fluorescamine assay) [%] | CR ([1]; conversion rate, fluorescamine assay)
1 | CKAKAQANM [BL9] | 57.73 | 57.73 |  |  |  |  | 
2 | KIKIKIKIYYYY [JR7] |  |  | 98.76 | 92.93 | 78.89 |  | 
3 | CKAKAQANMWQ [BL8] | 92.9 | 92.9 |  |  |  |  | 
4 | KIKIQI [JJA4] | 32.82 | 32.82 |  |  |  |  | 
5 | QCKAKAQANMWQ [CK22] | 89.28 | 89.28 | 96.23 | 96.71 | 85.72 |  | 
6 | KIKIQIC [TM112 / CN11] |  | 51.55 | 99.13 | 101.3 | 97.07 |  | 
7 | QCKFKQFFNMWQ [CK10] | 98.72 | 98.72 | 119.6 | 108.9 | 99.32 |  | 
8 | KIKIKIQINMWQ [VH9] |  |  | 103.6 | 97.29 | 82.19 |  | 
9 | CKIKIQINMWQ [MG1] | 91.29 | 91.29 |  |  |  |  | 
10 | CKFKFQFW [TM72] |  |  | 91.88 | 85.39 | 82.4 |  | 
11 | CKFKFQFNM [BL3] | 99.03 | 99.03 |  |  |  |  | 
12 | CKFKQFF [CK15] | 90.05 | 90.05 |  |  |  |  | 
13 | MKFKFQF [DF5 / CK16] |  | 98.72 | 101.4 | 111.3 | 99.71 |  | 
14 | QCKFKFQF [CK9] |  |  | 104.7 | 139.5 | 96.02 |  | 
15 | CKIKQIINM [BL1] |  |  | 107.4 | 104.1 | 87.1 |  | 
16 | CEFEFQFNMWQ [TM140] |  | 98.63 | 125.8 | 116.7 | 98.23 |  | 
17 | KFKFQF [JJA6] | 51.79 | 51.79 | 101.2 | 100.3 | 102.1 |  | 
18 | RGDCKFKFQF [TM64/ CN15] |  | 85.47 | 108.7 | 107.1 | 101 |  | 
19 | RGDCKIKIQINM [TM45] |  |  | 111.8 | 107.9 | 102.5 |  | 
20 | CKFKQFFNM [CK14] |  |  | 126.1 | 113.2 | 106.7 |  | 
21 | CKWKWQW [KB4] |  |  | 110.3 | 107 | 96.91 |  | 
22 | CSISIQI [TM141] |  | 76.63 | 98.15 | 96.88 | 81.12 |  | 
23 | CKIKIQINMWQ |  |  |  |  |  | 89.1 | 89.15
24 | KIKQII [msis21] | 19.94 | 19.94 |  |  |  |  | 
25 | KIKIQINM [JGB2] |  |  | 119.1 | 112 | 103.3 |  | 

Row | Substance | Conversion Rate / % [1] [%] | Conversion Rate / % ([1]; fluorescamine assay) [%] | viability 0.26 µM (TZM-bl cells) | viability 1.3 µM (TZM-bl cells) | viability 6.5 µM (TZM-bl cells) | CR / % ([1]; Fig. S7 panel B, conversion rate, fluorescamine assay) [%] | CR ([1]; conversion rate, fluorescamine assay)
26 | CHLHLQL [CN9] |  | 96.58 | 107.2 | 104.6 | 96.74 |  | 
27 | KAKAQA [JJA2 / TM153] | 0.3138 | 0.3138 | 119.1 | 118.6 | 109.1 |  | 
28 | CRFRFQF [CN10] |  | 98.13 | 93.96 | 90.72 | 89.78 |  | 
29 | QCKIKIQI [CK3] |  |  | 95.48 | 97.81 | 91.95 |  | 
30 | RGDKIKIQIC [MG7/CN1] |  |  | 116.2 | 110.7 | 92.54 |  | 
31 | KFKFQFNMWQ [JG4] | 98.32 | 98.32 | 119.1 | 111.9 | 101.1 |  | 
32 | RGDSKIKIQIC [TM113 / RC11] |  |  | 92.36 | 89.65 | 83.18 |  | 
33 | QCKFKQFFNM [CK11] | 98.67 | 98.67 |  |  |  |  | 
34 | CKIKIQI [MG3b] |  |  | 107.8 | 105.2 | 91.32 |  | 
35 | CEIEIQINMWQ [TM143] | 59.9 | 59.9 | 119.4 | 116.4 | 95.82 |  | 
36 | CRFRVPF [CN8] |  | 97.05 |  |  |  |  | 
37 | CKIKQIINMWQ [MG5a / CK17] |  |  | 108.4 | 105.1 | 87.21 |  | 
38 | CKFKFQF [BL4] | 96.11 | 96.11 | 97.07 | 99.36 | 84.09 |  | 
39 | HHHHKIKIKIKIYYYY [TM6] |  |  | 112.4 | 103.8 | 86.78 |  | 
40 | KIKQIINMWQ [JG2] | 94.17 | 94.17 | 91.29 | 92.88 | 83.88 |  | 
41 | CKIKIQINM [MG2] | 79 | 79 |  |  |  |  | 
42 | CQFQFQF [QBL4] |  |  | 110.4 | 111.2 | 99.59 |  | 
43 | KAKAQANMWQ [JG3] | 47.47 | 47.47 | 106.8 | 106.3 | 103.1 |  | 
44 | KFKFQFW [TM71] |  |  | 107.5 | 104.2 | 102.2 |  | 
45 | QCKIKIQINM [CK2] | 89.7 | 89.7 | 114.5 | 100.8 | 83.71 |  | 
46 | QCKFKFQFNM [CK8] | 98.94 | 98.94 |  |  |  |  | 
47 | KIKQIINM [JGA2] |  |  | 123.3 | 117.7 | 101.1 |  | 
48 | KFKFQFNM [BL6a] | 98.53 | 98.53 |  |  |  |  | 
49 | KIKIQINMWQ [JG1] | 95.68 | 95.68 |  |  |  |  | 
